Source: paper PMC3242598, “Phase I study of BIBF 1120 with docetaxel and prednisone in metastatic chemo-naive hormone-refractory prostate cancer patients” (British Journal of Cancer, 2011)

System: patients with metastatic, chemo-naive, hormone-refractory prostate cancer (HRPC)
Assay: Phase I safety analysis: adverse events graded by CTCAE version 3.0
Format: in vivo, human
Settings: for Dyspepsia: patients with drug-related AE / Dysphonia: patients with drug-related AE / Elevated ALT: patients with drug-related AE / Elevated AST: patients with drug-related AE / Elevated GGT: patients with drug-related AE / Elevated alkaline phosphatase: patients with drug-related AE / Epistasis: patients with drug-related AE / Headache: patients with drug-related AE / Hot flush: patients with drug-related AE / Mucosal inflammation: patients with drug-related AE / Muscle spasm: patients with drug-related AE / Nausea: patients with drug-related AE / Neuropathy: patients with drug-related AE / Pyrexia: patients with drug-related AE / Rash: patients with drug-related AE / Upper abdominal pain: patients with drug-related AE / Vomiting: patients with drug-related AE / Weight decrease: patients with drug-related AE / Ageusia: patients with drug-related AE / Alopecia: patients with drug-related AE / Anorexia: patients with drug-related AE / Asthenia: patients with drug-related AE / Constipation: patients with drug-related AE / Diarrhoea: patients with drug-related AE / Dysgeusia: patients with drug-related AE: all courses
Protocol: On days 2–21 (21-day cycle), patients took an oral dose of BIBF 1120 twice daily. Patients were instructed to swallow BIBF 1120 with water at the same time every day to ensure a dose interval of ∼12 h. On day 2 of treatment cycles (TCs) 1 and 2, patients only took the morning dose of BIBF 1120, omitting the evening dose to allow PK evaluation. All patients were premedicated with oral corticosteroids (dexamethasone 8 mg per os or methylprednisolone 32 mg per os, at 12 h and 1 h before docetaxel infusion) and subsequently took 5 mg prednisone oral BID throughout the trial. On day 1 of each TC, patients received an IV infusion of 75 mg m^−2 docetaxel administered over 1 h.
All patients who received at least one dose of BIBF 1120 or docetaxel were assessed during the safety analysis. Intensity of AEs was graded according to Common Terminology Criteria for Adverse Events (CTCAE) version 3.0. Objective response was defined as a PSA decline ⩾50% from the baseline value over two consecutive courses and/or tumour response according to RECIST criteria ([Therasse et al, 2000]).

[1] = 200 mg BID (n=3) + docetaxel/prednisone, all grades
[2] = 250 mg BID (n=12) + docetaxel/prednisone, Gr 3/4
[3] = 250 mg BID (n=12) + docetaxel/prednisone, all grades
[4] = Total, all dose levels (n=21) + docetaxel/prednisone, Gr 3/4
[5] = Total, all dose levels (n=21) + docetaxel/prednisone, all grades
[6] = during TC 1, all dose levels 100–250 mg BID + docetaxel/prednisone
[7] = during TC 1, all dose levels + docetaxel/prednisone

Question: What does the source list for COC(=O)c1ccc2c(c1)NC(=O)/C2=C(\Nc1ccc(N(C)C(=O)CN2CCN(C)CC2)cc1)c1ccccc1 [BIBF 1120]?
Answer: Dyspepsia: patients with drug-related AE [1]: 0; Dysphonia: patients with drug-related AE [1]: 2; Elevated ALT: patients with drug-related AE [1]: 0; Elevated AST: patients with drug-related AE [1]: 0; Elevated GGT: patients with drug-related AE [1]: 0; Elevated alkaline phosphatase: patients with drug-related AE [1]: 0; Epistasis: patients with drug-related AE [1]: 1; Headache: patients with drug-related AE [1]: 0; Hot flush: patients with drug-related AE [1]: 1; Mucosal inflammation: patients with drug-related AE [1]: 0; Muscle spasm: patients with drug-related AE [1]: 0; Nausea: patients with drug-related AE [1]: 2; Neuropathy: patients with drug-related AE [1]: 0; Pyrexia: patients with drug-related AE [1]: 0; Rash: patients with drug-related AE [1]: 0; Upper abdominal pain: patients with drug-related AE [1]: 0; Vomiting: patients with drug-related AE [1]: 2; Weight decrease: patients with drug-related AE [1]: 0; Patients with grade 3 diarrhoea (200 mg BID + docetaxel/prednisone, TC 1): One; Ageusia: patients with drug-related AE [2]: 0; Alopecia: patients with drug-related AE [2]: 0; Anorexia: patients with drug-related AE [2]: 0; Asthenia: patients with drug-related AE [2]: 0; Constipation: patients with drug-related AE [2]: 0; Diarrhoea: patients with drug-related AE [2]: 0; Dysgeusia: patients with drug-related AE [2]: 0; Dyspepsia: patients with drug-related AE [2]: 0; Dysphonia: patients with drug-related AE [2]: 0; Elevated ALT: patients with drug-related AE [2]: 2; Elevated AST: patients with drug-related AE [2]: 2; Elevated GGT: patients with drug-related AE [2]: 2; Elevated alkaline phosphatase: patients with drug-related AE [2]: 0; Epistasis: patients with drug-related AE [2]: 0; Headache: patients with drug-related AE [2]: 0; Hot flush: patients with drug-related AE [2]: 0; Mucosal inflammation: patients with drug-related AE [2]: 0; Muscle spasm: patients with drug-related AE [2]: 0; Nausea: patients with drug-related AE [2]: 0; Neuropathy: patients with drug-related AE [2]: 0; Pyrexia: patients with drug-related AE [2]: 0; Rash: patients with drug-related AE [2]: 0; Upper abdominal pain: patients with drug-related AE [2]: 0; Vomiting: patients with drug-related AE [2]: 0; Weight decrease: patients with drug-related AE [2]: 0; Ageusia: patients with drug-related AE [3]: 1; Alopecia: patients with drug-related AE [3]: 4; Anorexia: patients with drug-related AE [3]: 3; Asthenia: patients with drug-related AE [3]: 10; Constipation: patients with drug-related AE [3]: 2; Diarrhoea: patients with drug-related AE [3]: 8; Dysgeusia: patients with drug-related AE [3]: 2; Dyspepsia: patients with drug-related AE [3]: 1; Dysphonia: patients with drug-related AE [3]: 1; Elevated ALT: patients with drug-related AE [3]: 4; Elevated AST: patients with drug-related AE [3]: 3; Elevated GGT: patients with drug-related AE [3]: 3; Elevated alkaline phosphatase: patients with drug-related AE [3]: 2; Epistasis: patients with drug-related AE [3]: 3; Headache: patients with drug-related AE [3]: 0; Hot flush: patients with drug-related AE [3]: 1; Mucosal inflammation: patients with drug-related AE [3]: 2; Muscle spasm: patients with drug-related AE [3]: 2; Nausea: patients with drug-related AE [3]: 5; Neuropathy: patients with drug-related AE [3]: 1; Pyrexia: patients with drug-related AE [3]: 1; Rash: patients with drug-related AE [3]: 2; Upper abdominal pain: patients with drug-related AE [3]: 3; Vomiting: patients with drug-related AE [3]: 3; Weight decrease: patients with drug-related AE [3]: 1; Patients with CTCAE grade 3/4 liver enzyme (transaminase) elevations, of twelve (250 mg BID, any TC, based on laboratory values): six; Patients with CTCAE grade 3/4 increases in hepatic enzymes (250 mg BID, entire treatment period): 50%; Ageusia: patients with drug-related AE [4]: 0; Alopecia: patients with drug-related AE [4]: 0; Anorexia: patients with drug-related AE [4]: 0; Asthenia: patients with drug-related AE [4]: 0; Constipation: patients with drug-related AE [4]: 0; Diarrhoea: patients with drug-related AE [4]: 2; Dysgeusia: patients with drug-related AE [4]: 0; Dyspepsia: patients with drug-related AE [4]: 0; Dysphonia: patients with drug-related AE [4]: 0; Elevated ALT: patients with drug-related AE [4]: 2; Elevated AST: patients with drug-related AE [4]: 2; Elevated GGT: patients with drug-related AE [4]: 2; Elevated alkaline phosphatase: patients with drug-related AE [4]: 0; Epistasis: patients with drug-related AE [4]: 0; Headache: patients with drug-related AE [4]: 0; Hot flush: patients with drug-related AE [4]: 0; Mucosal inflammation: patients with drug-related AE [4]: 0; Muscle spasm: patients with drug-related AE [4]: 0; Nausea: patients with drug-related AE [4]: 0; Neuropathy: patients with drug-related AE [4]: 0; Pyrexia: patients with drug-related AE [4]: 0; Rash: patients with drug-related AE [4]: 0; Upper abdominal pain: patients with drug-related AE [4]: 0; Vomiting: patients with drug-related AE [4]: 0; Weight decrease: patients with drug-related AE [4]: 0; Ageusia: patients with drug-related AE [5]: 2; Alopecia: patients with drug-related AE [5]: 4; Anorexia: patients with drug-related AE [5]: 6; Asthenia: patients with drug-related AE [5]: 14; Constipation: patients with drug-related AE [5]: 3; Diarrhoea: patients with drug-related AE [5]: 13; Dysgeusia: patients with drug-related AE [5]: 3; Dyspepsia: patients with drug-related AE [5]: 2; Dysphonia: patients with drug-related AE [5]: 4; Elevated ALT: patients with drug-related AE [5]: 4; Elevated AST: patients with drug-related AE [5]: 3; Elevated GGT: patients with drug-related AE [5]: 3; Elevated alkaline phosphatase: patients with drug-related AE [5]: 2; Epistasis: patients with drug-related AE [5]: 5; Headache: patients with drug-related AE [5]: 2; Hot flush: patients with drug-related AE [5]: 2; Mucosal inflammation: patients with drug-related AE [5]: 2; Muscle spasm: patients with drug-related AE [5]: 2; Nausea: patients with drug-related AE [5]: 9; Neuropathy: patients with drug-related AE [5]: 2; Pyrexia: patients with drug-related AE [5]: 2; Rash: patients with drug-related AE [5]: 2; Upper abdominal pain: patients with drug-related AE [5]: 4; Vomiting: patients with drug-related AE [5]: 5; Weight decrease: patients with drug-related AE [5]: 2; Alopecia, frequency of AE irrespective of relatedness (all TCs and doses): 23.8%; Asthenia, frequency of AE irrespective of relatedness (all TCs and doses): 95.2%; Diarrhoea, frequency of AE irrespective of relatedness (all TCs and doses): 85.7%; Nausea, frequency of AE irrespective of relatedness (all TCs and doses): 28.6%; Alopecia, frequency of drug-related AE [6]: 23.8%; Asthenia, frequency of drug-related AE [6]: 61.9%; Nausea, frequency of drug-related AE [6]: 28.6%; Vomiting, frequency of drug-related AE [6]: 28.6%; Patients with AE severity grade 1 [7]: 28.6%; Patients with AE severity grade 2 [7]: 28.6%; Patients with AE severity grade 3 [7]: 23.8%; Patients with AE severity grade 4 (neutropenia only, considered related to docetaxel) [7]: 14.3%
